In patent EP4624457A1, “I[…] DERIVATIVES, I[…] NEURODEGENERATIVE DISEASES” (Centre National de la Recherche Scientifique, priority 2024, dated 2025):

Tested on: HCT116 cells
Assay: JC-1 mitochondrial membrane potential assay (flow cytometry)
Assay type: cell-based, human
Description: • Figure 1 represents the chemical structure of ingrilimine according to compound (Illa) formula. • Figure 2 represents the cytotoxic activity of ingrilimine. A2780 ovarian and HT29 colorectal carcinoma cells were grown in RPMI 1640 supplemented with 10% fetal calf serum (FCS) and 1% glutamine. U87-MG glioblastoma cells were grown in Dulbecco minimal essential medium containing 4.5 g/L glucose, 10% FCS and 1% glutamine at 37 °C in a humidified atmosphere containing 5% CO2. For IC50 determination, the cells were seeded in 96-well plates (3 × 10^3 cells/well) containing 90 µL of growth medium. After 24 h of culture, the cells were treated with ingrilimine at 10 different final concentrations. Cell viability was determined by luminescence after 72 h incubation. (a) Effect of ingrilimine on A2780 ovarian carcinoma cells. (b) Effect of ingrilimine on U87-MG glioblastoma cells. (c) Effect of ingrilimine on U87-MG glioblastoma cells • Figure 3a-3f represent the mitochondrial dysfunction provoked by ingrilimine. HCT116 cells were treated with ingrilimine in the range of […] for 24h and 48h. Sector Q normal cells that accumulated the JC-1 dye (fluorescence emission 590 nm). […] (a) Non-treated cells incubated with the carrier (DMSO) for 24 h. (b) HCT116 cells incubated with 10 nN ingrilimine for 24 h. (c) HCT116 cells incubated with 250 nM ingrilimine for 24 h. (d) Non-treated cells incubated with the carrier (DMSO) for 48 h. (e) HCT116 cells incubated with 10 nN ingrilimine for 48 h. (f) HCT116 cells incubated with 250 nM ingrilimine for 48. Changes in fluorescence emission were recorded by flow cytometry using the JC-1 mithocondrial membrane potential-dependent fluorescent dye. NT = non-treated cells; IngX = ingrilimine. • Figure 4a-4f represents phosphatidylserine exposure provoked by ingrilimine. […] Quadrants D1 and D2 with dead or necrotic cells, quadrant D3 with normal cells and quadrant D4 with apoptotic cells following phosphatidylserine exposure. (a) Non-treated A2780 cells incubated with the carrier (DMSO) for 24h. (b) A2780 cells incubated with 10 nM ingrilimine for 24 h. (c) A2780 cells incubated with 250 nM ingrilimine for 24 h. (d) Non-treated A2780 cells incubated with the carrier (DMSO) for 48 h. (e) A2780 cells incubated with 10 nM ingrilimine for 48 h. (f) A2780 cells incubated with 250 nM ingrilimine for 48. […] exposure in A2780 cell was quantified by flow cytometry using FITC-Annexin V. Dead or necrotic cells were detected using the vital dye propridium iodide. NT = non-treated cells; IngX = ingrilimine. • Figure 5 represents the antagonistic activity of ingrilimine (named "IngX" in the figure) and portimine (named "Port A" in the figure) against nicotinic acetylcholine receptors recorded by two-electrodes voltage clamp electrophysiology on Xenopus laevis oocytes. Clamped Xenopus laevis oocytes having incorporated the muscle (α1)2βγδ nAChR subtype from Torpedo marmorata (filled squares), or expressing the neuronal α3β2 nAChR subtype from rat (filled triangles), or expressing the human neuronal α7 nAChR subtype (filled circles) were exposed to portimine (100 nM - 1 mM) for 45 seconds. […] A Xenopus laevis oocyte expressing the human α7 nAChR subtype was exposed to 100 µM acetylcholine triggering the immediate opening of the receptor's channel (black bold line) followed by the very-fast closure of the channel ([…]) that became insensitive to acetylcholine during the rest of the 5 seconds exposure (desensitization). When a Xenopus laevis oocyte expressing the human α7 nAChR subtype was exposed first to 10 nM ingrilimine for 45 seconds and then to a mixture (Mix) containing 10 nM ingrilimine and 100 µM acetylcholine, the receptor's channel was closed denoting a strong antagonistic activity of the tested toxin against the α7 nAChR subtype (dotted line). […]

Row | SMILES | JC-1 % (5 nM, 48 h) | JC-1 % (10 nM, 24 h) | JC-1 % (10 nM, 48 h) | JC-1 % (20 nM, 24 h) | JC-1 % (20 nM, 48 h, listed as Portimine) | JC-1 % (20 nM, 48 h, listed as portimine) | JC-1 % (50 nM, 24 h) | JC-1 % (50 nM, 48 h) | JC-1 % (100 nM, 24 h) | JC-1 % (100 nM, 48 h) | JC-1 % (250 nM, 24 h) | JC-1 % (250 nM, 48 h) | JC-1 % (500 nM, 24 h) | times less potent than portimine in inducing mitochondrial membrane depolarization (HCT116, JC-1)
1 | C=CC1=C[C@@H]2[C@@H]3O[C@]4(CC[C@H](O4)[C@@H](C)C[C@@H](O)C3=O)C[C@H](O)C3=NCC[C@@]32CC1 [Portimine-A] | 31.6% | 19.7% | 44.6% | 23.9% | 62.1% | 62.3% | 37.0% | – | – | – | – | – | – | –
2 | C=CC1=C[C@@H]2C[C@@H](O)[C@@H](O)/C(C)=C/C/C(C)=C/CCC3=NCCC[C@]32CC1 [Ingrilimine, ingrilimine] | – | 5.1% | 4.4% | – | – | – | 6.1% | 22.6% | 14.9% | 44.1% | 22.7% | 64.1% | 36.9% | 10 times
